Data on two molecules can be found in US20060100180A1, “Composition containing an androgenous 11b-halogen steroid and a progestational hormone, and male contraceptive based on said composition” (priority 2002, published 2006).

For assay [1] the following is noted: cited from earlier work.
Assay [2] is described as follows: effectiveness compared with testosterone. To be noted: more effective than testosterone.

Consider `C[C@@H]1CC2=CC(=O)CC[C@@H]2[C@H]2CC[C@]3(C)[C@@H](O)CC[C@H]3[C@@H]21` [7α-methyl-19-nortestosterone], for which the “biological effectiveness compared with testosterone” value in assay [1] is “higher biological effectiveness than testosterone”.

`C[C@@H]1CC2=CC(=O)CC[C@@H]2[C@@H]2[C@@H]1[C@@H]1CC[C@H](O)[C@@]1(C)C[C@@H]2F` [Compound A, 11β-fluoro-17β-hydroxy-7α-methyl-estr-4-en-3-one]: in assay [2], the “effectiveness relative to testosterone” value is “about 10 ×”.
